How the values were obtained:
[1] = parameters: method as in PMID 23979733; conditions: DTG 50 mg once daily and RPV 25 mg once daily with a moderate-fat meal; cited from earlier work
[2] = cited from earlier work
[3] = Phase I open-label randomized 2-way crossover bioequivalence study, plasma pharmacokinetics of DTG and RPV; type: in vivo, healthy adults; conditions: blind sample size reestimation after 57 participants
Description: This phase I study (ViiV-clinicalstudyregister.com identifier 201676) utilized an open-label, randomized, 2-way crossover design at a single center (Quintiles, Overland Park, KS, USA) (Fig. 2). The total duration of the study was approximately 8 weeks from the time of screening to the last follow-up visit. A crossover design was selected for this study to allow within-participant comparisons to be performed, thereby reducing the number of participants required for the study. Rilpivirine has a long half-life (∼50 h) ([15]); therefore, a 21-day washout between doses and a long pharmacokinetic sampling period were implemented to ensure that predose concentrations were negligible and that pharmacokinetic parameters could be well estimated.
The reference treatment consisted of DTG 50-mg tablets (Tivicay; ViiV Healthcare, Research Triangle Park, NC, USA), which were identical in composition to the commercial form except for a different film coat color, and commercial RPV 25-mg tablets (Edurant; Janssen Therapeutics, Titusville, NJ, USA). The test treatment was the FDC tablet with DTG at 50 mg and RPV at 25 mg (Juluca; ViiV Healthcare, Research Triangle Park, NC, USA).
Participants were randomly assigned 1:1 to 1 of 2 treatment sequences according to a randomization schedule generated before the start of the study. […]

[4] = parameters: method as in PMID 24798770; conditions: cited from earlier work

Compound	Change in AUC0–t or Cmax on coadministration [1]	Half-life [2] [h]	Decrease in absorption after fasting versus a normal-fat meal ([2]; fasting vs normal-fat meal)	Observed within-participant coefficient of variation (CVw) of Cmax [3] [%]	Plasma exposure in the fed state [4]
Cc1cc(/C=C/C#N)cc(C)c1Nc1ccnc(Nc2ccc(C#N)cc2)n1 [RPV, rilpivirine]	no significant change	~50	approximately 40%	32.9	
C[C@@H]1CCO[C@H]2Cn3cc(C(=O)NCc4ccc(F)cc4F)c(=O)c(O)c3C(=O)N12 [DTG, dolutegravir]	no significant change			14.8	increase
